Results on 15 compounds are retold here after patent publication US6605628B1, “Method of using 5-(arysulfonyl)-, 5-(arylsulfanyl)-and 5-(arylsulfanyl)thiazolidine-2,4-diones for inhibition of farnesyl-protein transferase” (Wyeth Holdings Corporation, priority 2001, dated 2003).

As a reminder, the pIC50 is the negative decadic logarithm of the IC50, by convention in mol/L.

Test [1] deals with T1, FPTase (Homo sapiens, UniProt P49354+P49356). Briefly: in vitro FTase Inhibition Assay, H-Ras used as substrate for farnesylation. Conditions: Table I, read-out: IC50 H-Ras*. The test is classed as biochemical. The method, then:
(§1) Enzyme test procedure: FPTase inhibition in vitro assay was performed according to James, G. L., Brown, M. S., and Goldstein, J. L., Methods in Enzymology, 1995, 255, 38-46; and Garcia, M. A., et al., J. Biol. Chem., 1993, 268, 18415-18420.
(§2) Materials—Purified FPTase (Moomaw, J. F. and Casey, P. J., J. Biol. Chem., 1992, 267, 17438-17443), purified His6-Ras, inhibitor compounds at 10 mg/ml or 10 mM in 100% DMSO, ^3H-FPP (50,000 dpm/pmol) Amersham, TCA/SDS (6%/2%), TCA (6%), Glass fiber filters ([…]), vacuum manifold or 96 well filtration plates.
(§3) Methods—1. Dilute FPTase inhibitors from stock solutions to 2.5× in 2.5% DMSO, 10 mM DTT, 0.5% octyl-B-glucoside. 2. Solution #1 is added to FPTase reaction in a volume of […]. 3. Standard reaction mix, […], contains 50 mM Tris (7.5), 10 mM ZnCl2, 3 mM MgCl2, 20 mM KCl, 5 mM DTT, 0.2% octyl-B-glucoside, 1% DMSO, […] His6-Ras, 10 ng FPTase, and various concentrations of FPTase inhibitors. 4. Incubate for 30-90 min at 25° C. 5. Stop reactions with TCA/SDS (6%/2%), hold at 4° C. for 45-60 min. 6. Filter by manifold or 96 well plate, wash filter 3-5× with TCA (6%). 7. Add scintillant to filters, measure ^3H-FPP incorporation into Ras protein.
(§4) Analysis of Results—Percent inhibition by test compounds is determined by the following:
(§5) (cpm from precipitated Ras with test compounds)−(background cpm)×100=% inhibition.
(§6) (cpm from precipitated Ras without test compounds)−(background cpm)

Test [2] addresses T1, FPTase. The test can be described thus: in vitro FTase Inhibition Assay, K-Ras used as substrate for farnesylation. As to conditions: Table I. Format: biochemical. The method, then:
as §1, §2, §3, §4, §5, §6

Test [3] deals with K-ras dependent human colon carcinoma (LoVo). Briefly: in vivo effects against K-ras dependent human colon carcinoma (LoVo). Conditions: 1 mg/kg per dose IP, days 5, 9 and 13; control 0.5% Methocel 0.4% Tween 80. From the text: […] For the compound of example 114, when tested against a K-ras dependent human colon carcinoma (LoVo), the following results were obtained (Table III):

pIC50: −log10 of the molar value.

For `COc1ccc(S(=O)(=O)C2(CCCC#Cc3cc(NC(=O)OC(C)C)ccc3C)SC(=O)NC2=O)cc1` (centres unmarked) [Example 179, (3-(5-[5-(4-Methoxybenzenesulfonyl)-2,4-dioxothiazolidin-5-yl]pent-1-ynyl}-4-methylphenyl)carbamic Acid Isopropyl Ester], the figures for the pIC50 at FPTase [1] and on FPTase [2] were 7.49 to 8.70 and 7.15 to 8.30, respectively.

For `COc1ccc(S(=O)(=O)C2(CCCC#Cc3cc(NC(=O)OCC(C)(C)C)ccc3C)SC(=O)NC2=O)cc1` (centres unmarked) [Example 180, (3-(5-[5-(4-Methoxybenzenesulfonyl)-2,4-dixothiazolidin-5-yl]pent-1-ynyl}-4-methylphenyl)carbamic Acid Neopentyl Ester], the values for the pIC50 at FPTase [1] and on FPTase [2] were 7.49 to 8.70 and 7.05 to 8.15, respectively.

On to `CCCCOC(=O)Nc1ccc(C)c(C#CCCCC2(S(=O)(=O)c3ccc(OC)cc3)SC(=O)NC2=O)c1` (centres unmarked) [Example 181, (3-(5-[5-(4-Methoxybenzenesulfonyl)-2,4-dioxothiazolidin-5-yl]pent-1-ynyl}-4-methylphenyl)carbamic Acid Butyl Ester], for which the pIC50 was 7.49 to 8.00 at FPTase [1] and 6.89 to 7.00 on FPTase [2].

As for `COc1ccc(S(=O)(=O)C2(CCCC#Cc3cc(NC(=O)OCC(C)C)ccc3C)SC(=O)NC2=O)cc1` (centres unmarked) [Example 182, (3-{5-(5-(4-Methoxybenzenesulfonyl)-2 ,4-dioxothiazolidin-5-yl]pent-1-ynyl}-4-methylphenyl)carbamic Acid Isobutyl], the pIC50 is 8.00 to 8.30 at FPTase [1] and 7.25 to 7.49 on FPTase [2].

Turning to `COc1ccc(S(=O)(=O)C2(CCCC#Cc3cc(NC(=O)Nc4ccc(Cl)cc4)ccc3C)SC(=O)NC2=O)cc1` (centres unmarked) [Example 189, N-(4-Chlorophenyl)-N′-[3-(5-{5-[(4-methoxyphenyl)sulfonyl]-2,4-dioxo-1,3-thiazolidin-5-yl}-1-pentynyl)-4-methylphenyl]urea], the pIC50 on FPTase [1] was 7.00; against FPTase [2], 5.92.

Regarding `Cc1ccc(S(=O)(=O)C2(CCC/C=C\c3ccc(Cl)cc3)SC(=O)NC2=O)cc1` (centres unmarked) [Example 217, 5-[(4Z)-5-(4-Chloro-phenyl)pent-4-enyl]-5-(toluene-4-sulfonyl)-thiazolidine-2,4-dione], the pIC50 at FPTase [1] is 7.00; at FPTase [2] it was 5.07.

`COc1ccc(S(=O)(=O)C2(CCCC#Cc3cccc(N)c3)SC(=O)NC2=O)cc1` (centres unmarked) [Example 220, 5-[5-(3-Aminophenyl)pent-4-ynyl]-5-(4-methoxybenzenesulfonyl)-thiazolidine-2,4-dione]: the pIC50 was 7.05 on FPTase [1] and 5.52 against FPTase [2].

Turning to `COc1ccc(S(=O)(=O)C2(CCCC#Cc3cc(NC(=O)OCc4ccccc4)ccc3C)SC(=O)N(C(=O)OCc3ccccc3)C2=O)cc1` (centres unmarked) [Example 226, Benzyl 5-[5-(5-{[(benzyloxy)carbonyl]-amino}-2-methylphenyl)pent-4-ynyl]-5-[(4-methoxyphenyl)sulfonyl]-2,4-dioxo-1,3-thiazolidine-3-carboxylate], the figures for the pIC50 at FPTase [1] and against FPTase [2] were 7.30 to 7.52 and 5.49 to 7.00, respectively.

For `COc1ccc(S(=O)(=O)C2(CCCC#Cc3cc(NC(=O)OCc4ccc([N+](=O)[O-])cc4)ccc3C)SC(=O)N(C(=O)OCc3ccc([N+](=O)[O-])cc3)C2=O)cc1` (centres unmarked) [Example 227, 4-Nitrobenzyl 5-[(4-methoxyphenyl)sulfonyl]-5-{5-[2-methyl-5-({[(4-nitrobenzyl)oxy]carbonyl}amino)phenyl]pent-4-ynyl}-2,4-dioxo-1,3-thiazolidine-3-carboxylate], the negative-log IC50 (pIC50) at FPTase [1] was 8.00 to 8.15; at FPTase [2], 6.40 to 6.68.

For `COC(=O)Nc1ccc(C)c(C#CCCCC2(S(=O)(=O)c3ccc(OC)cc3)SC(=O)N(C(=O)OC)C2=O)c1` (centres unmarked) [Example 228, Methyl 5-(5-{5-[(methoxycarbonyl)amino]-2-methylphenyl}pent-4-ynyl)-5-[(4-methoxyphenyl)sulfonyl]-2,4-dioxo-1,3-thiazolidine-3-carboxylate], the negative logarithm of the IC50 (pIC50) on FPTase [1] is 7.15 to 8.40; against FPTase [2], 6.00 to 6.64.

Turning to `COc1ccc(S(=O)(=O)C2(CCCC#Cc3cc(NC(=O)OC(C)C)ccc3C)SC(=O)N(C(=O)OC(C)C)C2=O)cc1` (centres unmarked) [Example 229, Isopropyl 5-(5-{5-[(isopropoxycarbonyl)-amino]-2-methylphenyl}pent-4-ynyl)-5-[(4-methoxyphenyl)sulfonyl]-2,4-dioxo-1,3-thiazolidine-3-carboxylate], the negative logarithm of the IC50 (pIC50) on FPTase [1] is 7.70 to 8.22; against FPTase [2], 6.15 to 7.00.

In the case of `COc1ccc(S(=O)(=O)C2(CCCC#Cc3cc(NC(=O)OCC(C)(C)C)ccc3C)SC(=O)N(C(=O)OCC(C)(C)C)C2=O)cc1` (centres unmarked) [Example 230, Neopentyl 5-[(4-methoxyphenyl)sulfonyl]-5-[5-(2-methyl-5-{[(neopentyloxy)carbonyl]-amino}phenyl)pent-4-ynyl]-2,4-dioxo-1,3-thiazolidine-3-carboxylate], the negative-log IC50 (pIC50) was 8.46 to 8.52 on FPTase [1] and 6.30 to 7.70 at FPTase [2].

As for `CCCCOC(=O)Nc1ccc(C)c(C#CCCCC2(S(=O)(=O)c3ccc(OC)cc3)SC(=O)N(C(=O)OCCCC)C2=O)c1` (centres unmarked) [Example 231, Butyl 5-(5-{5-[(butoxycarbonyl)amino]-2-methylphenyl}pent-4-ynyl)-5-[(4-methoxy-phenyl)sulfonyl]-2,4-dioxo-1,3-thiazolidine-3-carboxylate], the values for the pIC50 on FPTase [1] and on FPTase [2] were 7.68 to 8.00 and 6.00 to 7.00, respectively.

`COc1ccc(S(=O)(=O)C2(CCCC#Cc3cc(NC(=O)OCC(C)C)ccc3C)SC(=O)N(C(=O)OCC(C)C)C2=O)cc1` (centres unmarked) [Example 232, Isobutyl 5-(5-{5-[(isobutoxycarbonyl)-amino]-2-methylphenyl}pent-4-ynyl)-5-[(4-methoxyphenyl)sulfonyl]-2,4-dioxo-1,3-thiazolidine-3-carboxylate]: the values for the negative logarithm of the IC50 (pIC50) at FPTase [1] and at FPTase [2] were 8.00 to 8.30 and 6.19 to 7.40, respectively.

Take `CC[C@]1(O)C[C@H]2CN(CCc3c([nH]c4ccccc34)[C@@](C(=O)OC)(c3cc4c(cc3OC)N(C=O)[C@H]3[C@@](O)(C(=O)OC)[C@H](OC(C)=O)[C@]5(CC)C=CCN6CC[C@]43[C@@H]65)C2)C1` [Vincristine, reference compound]: in test [3], the “% T/C, Day8” value amounted to 16%; the “% T/C, Day 15” value worked out at 8%; the “% T/C, Day 22” value was found to be 14%; the “% T/C, Day 29” value is on record as 19%. For the same compound, in test [3], the “% T/C, Day 36” value stood at 15%; the “Mean Tumor Weight, Day8” value was 14 mg; the “Mean Tumor Weight, Day 15” value is recorded as 24 mg; the “Mean Tumor Weight, Day 22” value amounted to 84 mg. For the same compound, in test [3], the “Mean Tumor Weight, Day 29” value is reported as 139 mg and the “Mean Tumor Weight, Day 36” value is listed as 194 mg.
